These results are taken from patent US20050054625A1, “Method for treating diseases using HSP90-inhibiting agents in combination with nuclear export inhibitors” (Kosan Biosciences, Inc., priority 2003, published 2005).

For this test, the system named is DLD-1 cells (human colorectal cancer cells). As to the kind of experiment: Cell viability (MTS) drug combination assay, combination index. The test is classed as cell-based. The conditions noted are these: combination with 17-AAG, CI<1 synergism. As for the experimental part:
Human colon adenocarcinoma cell line, DLD-1, and human breast adenocarcinoma cell line, SKBr-3, were obtained from American Type Culture Collection (manassas, VA). DLD-1 cells were maintained in RPMI 1640 medium supplemented with 10% fetal bovine serum, and SKBr-3 cells were cultured in McCoy's 5a medium supplemented with 10% fetal bovine serum. 17-DMAG and 17-AAG were obtained using published procedures. Other cytotoxic agents were purchased commercially from suppliers such as Sigrna Chemical Co. (St. Louis, Mo.) and Sequoia Research Products (Oxford, UK).
Cells were seeded in duplicate in 96-well microtiter plates at a density of 5,000 cells per well and allowed to attach overnight. […] Cell viability was determined using the MTS assay (Promega). […] Cell viability was determined by the MTS assay.
Synergism, additivity or antagonism was determined by median effect analysis using the combination index (CI) calculated using Calcusyn (Biosoft, Cambridge, UK). The combination index is defined as follows: CI=[D]1/[Dx]1+[D]2/[Dx]2 The quantities [D]1 and [D]2 represent the concentrations of the first and second drug, respectively, that in combination provide a response of x % in the assay. The quantities [Dx]1 and [Dx]2 represent the concentrations of the first and second drug, respectively, that when used alone provide a response of x % in the assay. […]

Turning to callystatin, the “CI value, 17-AAG Pre-Administration” value (17-AAG given 24 hours before the nuclear export inhibitor (48 hours)) was 0.95 ± 0.04. Moreover, the “CI value, 17-AAG Post-Administration” value (nuclear export inhibitor alone 24 hours, then 17-AAG for 48 hours) came to 0.81 ± 0.06.
